Each block holds one molecule with its values, some of them ahead of it.
What was measured:
Y2 receptors = tested on: Y2 receptors; parameters: method as in PMID 19953226; conditions: cited from earlier work
[1] = In vivo PET/MRI biodistribution of the radiotracer in mice; parameters: species or system C57BL/6N mice; conditions: i.v., 30–50 min post-injection, mean ± SEM, n = 7
Protocol: PET/MRI images of N-[^11C]Me-JNJ-31020028 and biodistribution studies were performed in healthy C57BL/6N mice. The radiotracer [^11C]2 injectable solutions were administered intravenously to the mice, previously anaesthetised, and the mice were put in the MicroPET scanner for PET imaging acquisition. The MRI acquisition was performed before injection due to the necessity of using equipment different from MicroPET.
PET/MRI Imaging. PET/MRI acquisitions were performed at the Institute for Nuclear Sciences Applied to Health (ICNAS) animal facility. During both acquisitions, the animals (n = 7) were anaesthetised using 1.5–2% isoflurane, and vital signs, such as temperature and respiratory cycle, were monitored. The radiotracer was administered intravenously (i.v.) in a total injected activity of 12.0 ± 2.9 µCi/g. Mice were placed in a MicroPET scanner based on resistive plate chamber detectors (RPC-PET). […] Quantitative imaging processing was performed using PMOD (PMOD, v 3.6; PMOD Technologies, Zürich, Switzerland, RRID: SCR_016547). […] Standardised uptake values (SUVs) were calculated as [[total positron (β+ radioactivity) concentration in the VOI (Bq/mL)]/[total positron (β+ radioactivity) injected (Bq)/weight (g)]] […] The percentage injected dose per gram (%ID/g) was calculated through Equation (2). […]

[2] = Ex vivo biodistribution by gamma counting one hour after i.v. injection; type: in vivo, C57BL/6N mice; conditions: mice, 1 h after i.v. injection
Protocol: The ex vivo biodistribution studies were performed one hour after the intravenous injection of the [^11C]2 injectable solution. For these studies, transcardiac perfusion with saline was performed, eliminating blood traces from the organs. […] Urinary excretion also occurred, though less radioactivity was found in the urine (84.43 ± 59.41%ID/g). The small intestine (98.64 ± 25.57%ID/g) and liver (14.33 ± 6.39%ID/g) were the organs with major uptake of the radiotracer. The high uptake in the small intestine is explained by the high density of Y2 receptors that exist in this organ, while the uptake in the liver is related to the metabolization of the tracer. Moderately low uptake was found in the stomach (3.082 ± 0.7135%ID/g), large intestine (2.18 ± 0.21%ID/g) and kidneys (1.99 ± 0.49%ID/g).
Biodistribution. In another cohort of animals (n = 5), ex vivo biodistribution (%ID/g of tissue) was performed by gamma counting through CRC®-55t well counter and CRC®-55tW radioisotope dose calibrator (Capintec, Ramsey, NJ, USA). Six regions of the brain were also isolated to characterise brain accumulation; the isolation of the specific brain regions was conducted following established protocols.

Y2 receptor = tested on: Y2 receptor; parameters: method as in PMID 24614224; conditions: living pigs; cited from earlier work
[3] = mean ± SEM, n = 5, listed as [^11C]2

SMILES: CCN(CC)C(=O)C(c1ccccc1)N1CCN(c2ccc(NC(=O)c3ccccc3-c3cccnc3)cc2F)CC1 (stereo not shown) [JNJ-31020028, N-(4-{4-[2-(diethylamino)-2-oxo-1-phenylethyl]piperazin1-yl}-3-fluorophenyl)-2-pyridin-3-ylbenzamide]
- Affinity and selectivity towards the Y2 receptors (Y2 receptors): high affinity and selectivity

- Uptake in the brain (in vivo PET) [1]: 0.5187 ± 0.08 %ID/g
- Uptake in the gut (in vivo PET) [1]: 12.57 ± 1.27 %ID/g
- Ex vivo biodistribution, small intestine ([2]; intestine wall, mean ± SEM, n = 5): 98.64 ± 25.57 %ID/g
- Brain ex vivo biodistribution, amygdala ([2]; mean ± SEM, n = 5): 0.9318 ± 0.08 %ID/g
- Brain ex vivo biodistribution, cerebellum ([2]; mean ± SEM, n = 5): 0.646 ± 0.10 %ID/g
- Brain ex vivo biodistribution, hippocampus ([2]; mean ± SEM, n = 5): 0.8976 ± 0.09 %ID/g
- Brain ex vivo biodistribution, hypothalamus ([2]; mean ± SEM, n = 5): 1.03 ± 0.11 %ID/g
- Brain ex vivo biodistribution, pre-frontal cortex (PFC) ([2]; mean ± SEM, n = 5): 0.636 ± 0.06 %ID/g
- Brain ex vivo biodistribution, striatum ([2]; mean ± SEM, n = 5): 1.013 ± 0.11 %ID/g
- Ex vivo biodistribution, blood ([2]; mean ± SEM, n = 5): 3.661 %ID/g
- Ex vivo biodistribution, kidney ([2]; mean ± SEM, n = 5): 1.986 %ID/g
- Ex vivo biodistribution, large intestine ([2]; mean ± SEM, n = 5): 2.18 ± 0.21 %ID/g
- Ex vivo biodistribution, liver ([2]; mean ± SEM, n = 5): 14.33 ± 6.39 %ID/g
- Ex vivo biodistribution, urine ([2]; mean ± SEM, n = 5): 84.43 ± 59.41 %ID/g
- Ex vivo biodistribution, bile [2, 3]: 250.1 ± 23.97 %ID/g
- Ex vivo biodistribution, blood [2, 3]: 3.66 ± 1.55 %ID/g
- Ex vivo biodistribution, kidney [2, 3]: 1.99 ± 0.49 %ID/g
- Ex vivo biodistribution, stomach [2, 3]: 3.082 ± 0.7135 %ID/g
- Ex vivo biodistribution, faeces ([2]; n = 5): 3.149 %ID/g
- Ex vivo biodistribution, heart ([2]; n = 5): 1.394 %ID/g
- Ex vivo biodistribution, lung ([2]; n = 5): 0.5568 %ID/g
- Ex vivo biodistribution, muscle ([2]; n = 5): 0.9318 %ID/g
- Ex vivo biodistribution, spleen ([2]; n = 5): 1.504 %ID/g
- Ex vivo biodistribution, whole brain ([2]; n = 5): 0.6362 %ID/g
SMILES: CCN(CC)C(=O)C(c1ccccc1)N1CCN(c2ccc(N([11CH3])C(=O)c3ccccc3-c3cccnc3)cc2F)CC1 (stereo not shown) [N-[^11C]Me-JNJ-31020028]
- Route of elimination ([2]; from uptake in bile): mainly eliminated through the hepatobiliary system
- Blood–brain barrier permeation (Y2 receptor): permeated the blood–brain barrier
- Metabolization in the bloodstream (Y2 receptor): slow metabolization in the bloodstream
